Source: US20060148760A1, “Method for the sysnthesis of compounds of formula I and their uses thereof” (TransTech Pharma, priority 2000, published 2006)
Structures can show the parent of a compound that is named as a salt.

Legend:
[1] = molecular target: T1, Carboxymethyl Lysine (CML)/RAGE interaction (Homo sapiens, UniProt Q15109); test: ELISA assay, CML binding to sRAGE; details: plate-bound CML
T1 construct: generate soluble RAGE (sRAGE) comprised of the V and C domains
Procedure: (§1) S100b, β-amyloid and CML (500 ng/100 μL/well) in 100 mM sodium bicarbonate/sodium carbonate buffer (pH 9.8) is loaded onto the wells of a NUNC Maxisorp flat bottom 96—well microtitre plate. The plate is incubated at 4° C. overnight. The wells are aspirated and treated with 50 mM imidazole buffer saline (pH 7.2) (with 1 mM CaCl2/MgCl2) containing 1% bovine serum albumin (BSA) (300 μL/well) for two h at 37° C.
(§2) Test compounds are dissolved in nanopure water (concentration: 10-100 μM). DMSO may be used as co-solvent. 25 μL of test compound solution in 2% DMSO is added, along with 75 μL sRAGE (4.0×10^−4 mg/mL FAC) to each well and samples are incubated for 1 h at 37° C. The wells are washed 3 times with 155 mM NaCl pH 7.2 buffer saline and are soaked 10 seconds between each wash. Non-radioactive binding is performed by adding:
(§3) 10 μL Biotinylated goat F(ab′)2 Anti-mouse IgG. (8.0×10^−4 mg/mL, FAC)
(§4) 10 μL Alk-phos-Sterptavidin (3×10^−3 mg/mL FAC)
(§5) 10 μL Polyclonal antibody for sRAGE (FAC 6.0×10^−3 mg/mL) to 5 mL 50 mM imidazole buffer saline (pH 7.2) containing 0.2% bovine serum albumin and 1 mM CaCl2. The mixture is incubated for 30 minutes at 37° C. 100 μL complex is added to each well and incubation is allowed to proceed at rt for 1 h. Wells are washed 3 times with wash buffer and soaked 10 s between each wash. 100 μL 1 mg/mL (pNPP) in 1 M diethanolamine (pH adjusted to 9.8 with HCl) is added. […] The reaction is quenched with 10 μL of stop solution (0.5 N NaOH in 50% ethanol) and the absorbance is measured spectrophotometrically with a microplate reader at 405 nm.

[2] = molecular target: T2, β-amyloid—RAGE interaction (Homo sapiens, UniProt Q15109); test: ELISA assay, β-amyloid binding to sRAGE; details: plate-bound β-amyloid
T2 construct: generate soluble RAGE (sRAGE) comprised of the V and C domains
Procedure: as §1, §2, §3, §4, §5

[3] = molecular target: T3, S-100b/RAGE interaction (Homo sapiens, UniProt Q15109); test: ELISA assay, S-100b binding to sRAGE; details: plate-bound S100b, concentration at which 50% signal is inhibited
T3 construct: generate soluble RAGE (sRAGE) comprised of the V and C domains
Procedure: as §1, §2, §3, §4, §5

T2 sequence (Q15109 23-342 limits assumed): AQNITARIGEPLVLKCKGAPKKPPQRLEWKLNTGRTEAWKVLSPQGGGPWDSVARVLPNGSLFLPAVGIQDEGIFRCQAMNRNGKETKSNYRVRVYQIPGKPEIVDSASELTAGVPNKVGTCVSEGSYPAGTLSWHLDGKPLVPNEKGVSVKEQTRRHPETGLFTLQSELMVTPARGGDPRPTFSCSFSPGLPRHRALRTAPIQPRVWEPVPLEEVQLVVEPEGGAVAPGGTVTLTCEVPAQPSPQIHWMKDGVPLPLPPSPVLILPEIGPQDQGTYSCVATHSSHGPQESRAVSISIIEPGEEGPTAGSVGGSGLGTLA
T3 sequence (Q15109 23-342 limits assumed): as above
T1 sequence (Q15109 23-342 limits assumed): as above

Molecule	IC50 [1] [nM]	IC50 [2] [nM]	IC50 [3] [nM]
(R)-3-(4-Benzyloxyphenyl)-2-aminopropionic Acid 4-Diethylaminoethoxy-2-diethylaminoethoxyaniline Amide Trihydrochloride [Example 20]	1000	1000	840
CCCCOc1cc(C(=O)OCCN(CC)CC)ccc1NC(=O)[C@H](N)Cc1ccc(OCc2ccccc2)cc1 [Example 4, (R)-3-(4-Benzyloxyphenyl)-2-aminopropionic Acid 4-Diethylaminoethoxycarbonyl-2-butoxyaniline Amide Dihydrochloride]	1120	2200	820
CCCCOc1cc(C(=O)OCCN(CC)CC)ccc1NC(=O)[C@@H](Cc1ccc2ccccc2c1)NC [Example 5, (R)-3-(2-Naphthyl)-2-methylaminopropionic Acid 4-Diethylaminoethoxycarbonyl-2-butoxyaniline Amide Dihydrochloride]	1270	1810	2880
CCCCOc1cc(C(=O)OCCN(CC)CC)ccc1NC(=O)[C@@H](Cc1ccc(OCc2ccccc2)cc1)NC(=O)OC(C)(C)C [Example 3, (R)-3-(4-Benzyloxyphenyl)-2-tert-butoxycarbonylaminopropionic Acid 4-Diethylaminoethoxycarbonyl-2-butoxyaniline Amide]	1500	1500	1320
CC(C)(C)OC(=O)N[C@H](Cc1ccc(OCc2ccccc2)cc1)C(=O)Nc1ccc(C(=O)OC(C)(C)C)cc1OC(C)(C)C [Example 7, (R)-3-(4-Benzyloxyphenyl)-2-tert-butoxycarbonylaminopropionic Acid 4-tert-Butoxycarbonyl-2-tert-butoxyaniline Amide]	8000	–	1000 to 3000
CCN(CC)CCOC(=O)c1ccc(NC(=O)[C@H](N)Cc2ccc(OCc3ccccc3)cc2)c(OCC(C)C)c1 [Example 9, (R)-3-(4-Benzyloxyphenyl)-2-aminopropionic Acid 4-Diethylaminoethoxycarbonyl-2-isobutoxyaniline Amide Dihydrochloride]	–	–	1600
CCCCOc1cc(C(=O)OCCN(CC)CC)ccc1NC(=O)[C@@H](Cc1ccc(OCc2ccccc2)cc1)NC(C)C [Example 13, (R)-3-(4-Benzyloxyphenyl)-2-isopropylaminopropionic Acid 4-Diethylaminoethoxycarbonyl-2-butoxyaniline Amide]	700	1000	1000
CCCCOc1cc(C(=O)OCCN(CC)CC)ccc1NC(=O)[C@@H](Cc1ccc2ccccc2c1)NC(C)=O [Example 25, (R)-3-(2-Naphthyl)-2-acetylaminopropionic Acid 4-Diethylaminoethoxycarbonyl-2-butoxyaniline Amide]	–	–	15000
CCN(CC)CCOC(=O)c1ccc(NC(=O)[C@@H](Cc2ccc(OCc3ccccc3)cc2)NC(=O)OC(C)(C)C)c(OCC(C)C)c1 [Example 8, (R)-3-(4-Benzyloxyphenyl)-2-tert-butoxycarbonylaminopropionic Acid 4-Diethylaminoethoxycarbonyl-2-isobutoxyaniline Amide]	–	–	2000
CCCCOc1cc(C(=O)OCCN(CC)CC)ccc1NC(=O)[C@@H](Cc1ccc(OCc2ccccc2)cc1)NC(=O)NCC [Example 17, (R)-3-(4-Benzyloxyphenyl)-2-ethylcarbamoylaminopropionic Acid 4-Diethylaminoethoxycarbonyl-2-butoxyaniline Amide]	–	–	10000
CCCCOc1cc(C(=O)OCCN(CC)CC)ccc1NC(=O)[C@@H](Cc1ccccc1)NC(=O)OC(C)(C)C [Example 10, (R)-3-Phenyl-2-tert-butoxycarbonylaminopropionic Acid 4-Diethylaminoethoxycarbonyl-2-butoxyaniline Amide]	–	–	950
CCN(CC)CCOC(=O)c1ccc(NC(=O)[C@H](N)Cc2ccc(OCc3ccccc3)cc2)c(OCc2ccco2)c1 [Example 24, (R)-3-(4-Benzyloxyphenyl)-2-aminopropionic Acid 4-Diethylaminoethoxycarbonyl)-2-(2-furylmethoxy)aniline Amide Dihydrochloride]	–	–	2700
CCCCOc1cc(C(=O)OCCN(CC)CC)ccc1NC(=O)[C@@H](Cc1ccc(OCc2ccccc2)cc1)NCc1ccccc1 [Example 14, (R)-3-(4-Benzyloxyphenyl)-2-benzylaminopropionic Acid 4-Diethylaminoethoxycarbonyl-2-butoxyaniline Amide]	–	–	2800
CCCCOc1cc(C(=O)OCCN(CC)CC)ccc1NC(=O)[C@@H](Cc1ccc(OCc2ccccc2)cc1)NS(=O)(=O)c1ccccc1 [Example 16, (R)-3-(4-Benzyloxyphenyl)-2-phenylsulfonylaminopropionic Acid 4-Diethylaminoethoxycarbonyl-2-butoxyaniline Amide]	–	–	20000 to 30000
CCCCOc1cc(C(=O)OC)ccc1NC(=O)[C@H](N)Cc1ccc2ccccc2c1 [Example 2, (R)-3-(2-Naphthyl)-2-aminopropionic Acid 4-Methoxycarbonyl-2-butoxyaniline Amide Hydrochloride]	3160	–	5100
CCN(CC)CCCOc1ccc(NC(=O)[C@@H](Cc2ccc(OCc3ccccc3)cc2)NC(=O)OC(C)(C)C)c(OCCCN(CC)CC)c1 [Example 21, (R)-3-(4-Benzyloxyphenyl)-2-tert-butoxycarbonylaminopropionic Acid 4-(3-Diethylamino-1-propoxy)-2-(3-diethylamino-1-propoxy)aniline Amide]	460	1230	640
CCCCOc1cc(C(=O)OCCN(CC)CC)ccc1NC(=O)[C@@H](Cc1ccc(OCc2ccccc2)cc1)NC(C)=O [Example 26, (R)-3-(4-Benzyloxyphenyl)-2-acetylaminopropionic Acid 4-Diethylaminoethoxycarbonyl-2-butoxyaniline Amide]	–	–	5600
CCCCOc1cc(C(=O)OCCN(CC)CC)ccc1NC(=O)[C@@H](Cc1ccc(OCc2ccccc2)cc1)NS(C)(=O)=O [Example 15, (R)-3-(4-Benzyloxyphenyl)-2-methanesulfonylaminopropionic Acid 4-Diethylaminoethoxycarbonyl-2-butoxyaniline Amide]	–	–	10000 to 30000
CCCCOc1cc(C(=O)OCCN(CC)CC)ccc1NC(=O)[C@@H](Cc1ccc(OCc2ccccc2)cc1)NC(=O)NC(C)(C)C [Example 18, (R)-3-(4-Benzyloxyphenyl)-2-tert-butylcarbamoylaminopropionic Acid 4-Diethylaminoethoxycarbonyl-2-butoxyaniline Amide]	840	2000	2300
(R)-3-(4-Benzyloxyphenyl)-2-aminopropionic Acid 4-(3-Diethylamino-1-propoxy)-2-(3-diethylamino-1-propoxyaniline Amide Trihydrochloride [Example 22]	680	1730	920
CCN(CC)CCOC(=O)c1ccc(NC(=O)[C@@H](Cc2ccc(OCc3ccccc3)cc2)NC(=O)OC(C)(C)C)c(OCc2ccco2)c1 [Example 23, (R)-3-(4-Benzyloxyphenyl)-2-tert-butoxycarbonylaminopropionic Acid 4-Diethylaminoethoxycarbonyl-2-(2-furylmethoxy)aniline Amide]	–	–	15500
CCN(CC)CCOc1ccc(NC(=O)[C@@H](Cc2ccc(OCc3ccccc3)cc2)NC(=O)OC(C)(C)C)c(OCCN(CC)CC)c1 [Example 19, (R)-3-(4-Benzyloxyphenyl)-2-tert-butoxycarbonylaminopropionic Acid 4-Diethylaminoethoxy-2-diethylaminoethoxyaniline Amide]	800	800	1140
COC(=O)c1ccc(NC(=O)[C@@H](Cc2ccc(OCc3ccccc3)cc2)NC(=O)OC(C)(C)C)c(O)c1 [Example 6, (R)-3-(4-Benzyloxyphenyl)-2-tert-butoxycarbonylaminopropionic Acid 4-Methoxycarbonyl-2-hydroxyaniline Amide]	–	–	6300
CCCCOc1cc(C(=O)OCCN(CC)CC)ccc1NC(=O)[C@H](N)Cc1ccccc1 [Example 11, (R)-3-Phenyl-2-aminopropionic Acid 4-Diethylaminoethoxycarbonyl-2-butoxyaniline Amide Dihydrochloride]	–	–	10000 to 30000
(R)-3-(2-Naphthyl)-2-guanidinylpropionic Acid 4-Diethylaminoethoxycarbonyl-2-butoxyaniline Amide Dihydrochloride [Example 12]	700	5000	300 to 1000
